The text below walks through data of patent US20070203212A1, “METHOD OF TREATING OSTEOARTHRITIS” (WARNER-LAMBERT COMPANY, priority 2002, published 2007).

In test [1] the test system is carrageenan-induced thermal hyperalgesia. Description: Carrageenan-induced thermal hyperalgesia (CITH), paw withdrawal latency. Type of test: in vivo, rat. Particulars: Day 1. The procedure: Male Sprague Dawley rats (200-300 g), obtained from Charles River, were housed in groups of 2 under a 12 hour light/dark cycle with food and water ad libitum. Animals were allowed to acclimate to the test room one hour prior to testing.
Thermal hyperalgesia was assessed using the rat plantar test (apparatus from Univ. California, San Diego) following a modified method of Hargreaves et al., 1988. Rats were habituated to the apparatus, which consisted of three perspex boxes that individually housed […] on an elevated glass table. A mobile radiant heat source (halogen lamp) was located under the glass table and focused onto the hind paw. Paw withdrawal latencies (PWL) were recorded in seconds (“s”). An automatic cut off point of 22.5 s was set to prevent tissue damage. The mean of 2-3 PWL was taken at each time point for both hind paws of each animal. The apparatus was calibrated to give a PWL of approximately 10 s before carrageenan administration.
After basal PWL were determined, animals receive an intraplantar 100 μL of 10 mg/mL) into the right hind paw. Lambda carrageenan (Sigma Chemical Co.) was dissolved in isotonic saline 5 minutes prior to injecting. PWL were reassessed following the same protocol 2 hours post carrageenan (this time point represented the start of peak hyperalgesia) to ascertain that hyperalgesia had developed. 6-(5-Carboxy-5-methyl-hexyloxy)-2,2-dimethyl-hexanoic acid, calcium salt was then administered orally via oral dosing needles 2.5 hours post carrageenan injection, and PWL were taken again at 30- or 60-minute intervals post drug administration for 6 hours.
Data consisted of the mean of 2-3 reads/paw for individual animals. Group data was the compiled individual means. Percent inhibition was calculated as follows for each time point: (mean drug treated−mean control)/(mean baseline−mean control)×100.

The subject of test [2] is human recombinant IL-6/IL-6sR induced joint pain. Description: IL-6 with IL-6 soluble receptor induced joint pain in rat. Type of test: in vivo. Particulars: single oral dose 30 mg/kg. Here is the method:
(§1) It should be appreciated that in Biological Methods 1, 2, 4, and 5 below, hind paw weight bearing differentials between the paw of the limb having the control joint (in animals administered test compound vehicle only) and the paw of the limb having the contralateral test joint (in control or inducement animals administered test compound vehicle only and in treatment animals administered test compound dissolved in test compound vehicle) were determined using an incapacitance tester, model 2KG (Linton Instrumentation, Norfolk, United Kingdom). The incapacitance tester has a chamber on top with an outwardly sloping front wall that supports a rat's front limbs, and two weight sensing pads, one for each hind paw, that facilitates this determination. The hind paw weight bearing differentials were expressed in grams and calculated as follows: (the average weight in grams placed on the control limb minus the average weight in grams placed on the contralateral test limb for each of the inducement or treatment animals) minus (the average weight in grams placed on the control limb minus the average weight in grams placed on the contralateral test limb for each of the control animals). All results were statistically analyzed by comparing the average results for an induction or treatment group with the average result for its control group at the same time point using analysis of covariance (“ANCOVA”) followed by the Hoehberg's procedure and those with statistical significance had p<0.05 unless otherwise noted.
Human recombinant IL-6 (100 ng per rat; R&D Systems, Minneapolis, Minn.) was incubated at room temperature with human recombinant IL-6 soluble receptor (300 ng per rat; R&D Systems, Minneapolis, Minn.) in phosphate buffered saline (“PBS”) for 15 minutes prior to injection. Rats were anesthetized with 5% volume/volume (“v/v”) isoflurane gas and maintained with 2% v/v isoflurane gas. The anesthetized rats were given a single intra-articular injection of IL-6/WL-6sR through the infrapatellar ligament of the right knee in a volume of 50 μL. The contralateral control knee was injected with 50 μL of PBS. Administration of isoflurane gas was discontinued, and the rats became fully conscious about 5 minutes later.
Shifts in hind paw weight distribution from the right (arthritic) to the left (contralateral control) paws were utilized as an index of joint pain and as a measure of compound efficacy. An incapacitance tester (Model 2KG, Linton Instrumentation, UK) was employed for determination of hind paw weight distribution. Each data point is the mean of three, 5-second readings.
CI-1027 was dissolved in BPMC vehicle as described above. Baseline changes in hind paw weight distribution readings were determined one day prior to injection of IL-6/IL-6sR. On the day of the experiment (Day 0), a single dose of CI-1027 (10, 30 or 100 mg/kg) was given via oral gavage 3 hours prior to injection of IL-6/IL-6sR (n=10 rats per group). Changes in hind paw weight distribution were determined one, three, and six hours after injection of IL-6/IL-6sR.
In Table 4 below, data from the method of Biological Method 5 are expressed as a percent inhibition of a change in hind paw weight distribution ± the standard error of the mean. The percents inhibition were calculated as follows. Percent inhibition of a change in hind paw weight distribution [formula] wherein: ΔWC is the hind-paw weight differential between the healthy limb and the hrIL-6+ hrIL-6sR injected limb of the control animal group administered vehicle alone, as measured at time 1, 3, or 6 hours post injection; and
ΔWG is the hind-paw weight differential between the healthy limb and the hrIL-6+ hrIL-6sR injected limb of a treatment animal group as measured at time 1, 3, or 6 hours post injection.

Test [3] deals with monosodium iodoacetate (MIA)-induced osteoarthritis. Description: MIA rat model, acute single oral dose: change in hind paw weight distribution (joint pain). Type of test: in vivo. Particulars: for Day 7 2 hr. (% ± SEM) inhibition of MIA-induced change in hind paw weight distribution / Day 7 4 hr. (% ± SEM) inhibition of MIA-induced change in hind paw weight distribution / Day 7 6 hr. (% ± SEM) inhibition of MIA-induced change in hind paw weight distribution / Day 14 2 hr. (% ± SEM) inhibition of MIA-induced change in hind paw weight distribution / Day 14 4 hr. (% ± SEM) inhibition of MIA-induced change in hind paw weight distribution / Day 14 6 hr. (% ± SEM) inhibition of MIA-induced change in hind paw weight distribution: single oral dose 30 mg/kg; for Day 7 2 hr. (% ± SEM) inhibition of MIA-induced change in hind paw weight distribution: Day 7, 2 hours post dose; for Day 7 4 hr. (% ± SEM) inhibition of MIA-induced change in hind paw weight distribution: Day 7, 4 hours post dose; for Day 7 6 hr. (% ± SEM) inhibition of MIA-induced change in hind paw weight distribution: Day 7, 6 hours post dose; for Day 14 2 hr. (% ± SEM) inhibition of MIA-induced change in hind paw weight distribution: Day 14, 2 hours post dose; for Day 14 4 hr. (% ± SEM) inhibition of MIA-induced change in hind paw weight distribution: Day 14, 4 hours post dose; for Day 14 6 hr. (% ± SEM) inhibition of MIA-induced change in hind paw weight distribution: Day 14, 6 hours post dose. The procedure:
as §1
The rats were anesthetized with 5% volume/volume (“v/v”) isoflurane gas and maintained with 2% v/v isoflurane gas. The anesthetized rats were given a single intra-articular injection of 1 mg of MIA through the infrapatellar ligament of the right knee. MIA was dissolved in physiologic saline and administered in a volume of 50 μL. The contralateral control knee was injected with 50 μL of physiologic saline. Administration of isoflurane gas was discontinued, and the rats became fully conscious about 5 minutes later.
Shifts in hind paw weight distribution from the right to the left hind paws supporting the right (arthritic) and the left (contralateral control) hind leg knee joints were utilized as an index of joint pain and as a measure of compound efficacy. An incapacitance tester (Model 2KG, Linton Instrumentation, UK) was employed for determination of hind paw weight distribution. Each data point is the mean of three readings of 5 seconds duration.
CI-1027 (i.e., 6-(5-carboxy-5-methyl-hexyloxy)-2,2-dimethyl-hexanoic acid, calcium salt) was dissolved in hydroxypropylmethylcellulose (“HPMC”) vehicle (0.05% HPMC+0.2% Tween 80; compound amount was adjusted based on the percent of free acid, i.e., 6-(5-carboxy-5-methyl-hexyloxy)-2,2-dimethyl-hexanoic acid).
[…] Rats were then given a single, 10, 30, or 100 mg/kg, dose of CI-1027 via oral gavage (PO). Changes in hind paw weight distribution were determined 2, 4 and 6 hours post-compound administration.
6-(5-carboxy-5-methyl-hexyloxy)-2,2-dimethyl-hexanoic acid, calcium salt (“CI-1027”) and rofecoxib was tested in the rat MIA model in an acute dosing paradigm as described previously. MIA was injected into the right knee and saline into the left knee of all rats on Day 0. […] Two hours later, the rats were reassessed. The results for inhibition of pain, expressed as a percentage±standard error of the mean, are shown below in Table 5. The percent inhibition of pain was determined as described above in Biological Method 1. […] N=8 rats per group.

The test system of test [4] is monoclonal antibody-induced arthritis. As to the kind of experiment: Monoclonal antibody-induced arthritis (MAIA) mouse model, footpad and ankle swelling. Type of test: in vivo. Set-up: footpad and ankle swelling: dose or concentration left out as unconfirmed. Particulars: BALB/c mice. Here is the method: In a typical MAIA experiment, groups of four mice were injected intraperitoneally (“i.p.”) with 0.4 mL (BALB/c and DBA/1 strains) or 0.8 mL (C57BL/6, 129X1/SvJ, C3H/HeJ, and C3H/FeJ strains) with a 10 mg/mL solution of Arthrogen-CIA Monoclonal Antibody Blend (Chemicon International, Inc.). Two days later, the mice were injected i.p. with 0.2 mL of a 0.25 mg/mL solution of LPS (lipopolysaccharide form Escherichia coli (“E. coli”) strain 0111B4) in PBS. Footpad and ankle size was assessed using a Dyer Digital Caliper (#655-030-4916) on the day of mAb injection, and every two days following LPS injection.

Take `CC(C)(CCCCCCCCCC(C)(C)C(=O)O)C(=O)O` [A4, 2,2,12,12-tetramethyltridecanedioic acid]: in test [1] (single oral dose 30 mg/kg), the “CITH (%) percentage inhibition, paw withdrawal latency” value (“CITH (%) percentage inhibition” for short) is given as 118%. In test [1] (single oral dose 100 mg/kg), the “CITH (%) percentage inhibition” value is listed as 115%. The “1 hr. (% ± SEM) inhibition of (IL-6/IL-6sR)-induced change in hind paw weight distribution” value in test [2] (Day 1, 1 hour post injection of IL-6/IL-6sR) was determined as 70 ± 9%. For the same compound, the “3 hr. (% ± SEM) inhibition of (IL-6/IL-6sR)-induced change in hind paw weight distribution” value in test [2] (Day 1, 3 hours post injection of IL-6/IL-6sR) is on record as 79 ± 5%. Further, the “6 hr. (% ± SEM) inhibition of (IL-6/IL-6sR)-induced change in hind paw weight distribution” value in test [2] (Day 1, 6 hours post injection of IL-6/IL-6sR) is reported as 26 ± 6%. Moreover, in test [3], the “Day 7 2 hr. (% ± SEM) inhibition of MIA-induced change in hind paw weight distribution” value is recorded as 25 ± 5%, the “Day 7 4 hr. (% ± SEM) inhibition of MIA-induced change in hind paw weight distribution” value came out at 38 ± 7%, the “Day 7 6 hr. (% ± SEM) inhibition of MIA-induced change in hind paw weight distribution” value stood at 43 ± 6% and the “Day 14 2 hr. (% ± SEM) inhibition of MIA-induced change in hind paw weight distribution” value was 35 ± 6%. In test [3], the “Day 14 4 hr. (% ± SEM) inhibition of MIA-induced change in hind paw weight distribution” value is 29 ± 8% and the “Day 14 6 hr. (% ± SEM) inhibition of MIA-induced change in hind paw weight distribution” value worked out at 55 ± 7%.
With `CS(=O)(=O)c1ccc(C2=C(c3ccccc3)C(=O)OC2)cc1` [Rofecoxib, reference compound], in test [3] (rofecoxib 3 mg/kg PO alone, Day 14), the “Mean pain alleviation at 2 hours post administration (% ± SEM)” value stood at 23 ± 7%.
Regarding `CC(C)(CCCOCCCC(C)(C)C(=O)O)C(=O)O` [A2, 5,5′-oxybis(2,2-dimethylpentanoic acid)], in test [1] (single oral dose 30 mg/kg), the “CITH (%) percentage inhibition” value is −3%. Besides, in test [3], the “Day 7 2 hr. (% ± SEM) inhibition of MIA-induced change in hind paw weight distribution” value is −11 ± 15^ %, the “Day 7 4 hr. (% ± SEM) inhibition of MIA-induced change in hind paw weight distribution” value stood at 16 ± 15%, the “Day 14 2 hr. (% ± SEM) inhibition of MIA-induced change in hind paw weight distribution” value amounted to 9 ± 13% and the “Day 14 4 hr. (% ± SEM) inhibition of MIA-induced change in hind paw weight distribution” value stood at 9 ± 20%.
The corresponding values for `CC(C)(CCCCCOCCCCCC(C)(C)C(=O)O)C(=O)O` [A1, 7,7′-oxybis(2,2-dimethylheptanoic acid)] are 22%, 50 ± 11%, 15 ± 14%, −3 ± 15% and −9 ± 17%.
On to `CN(Cc1cnc2nc(N)nc(N)c2n1)c1ccc(C(=O)N[C@@H](CCC(=O)O)C(=O)O)cc1` [methotrexate, N-[4-[[(2,4-diamino-6-pteridinyl)methyl]methylamino]benzoyl]-L-glutamic acid, reference compound], for which the “footpad and ankle swelling” value in test [4] is “significantly inhibit footpad and ankle swelling”.
Regarding `CC(C)(CCOCCC(C)(C)C(=O)O)C(=O)O` [A3, 4,4′-oxybis(2,2-dimethylbutanoic acid)], the “CITH (%) percentage inhibition” value in test [1] (single oral dose 30 mg/kg) is reported as 20%. Also, in test [3], the “Day 7 2 hr. (% ± SEM) inhibition of MIA-induced change in hind paw weight distribution” value was found to be 20 ± 4%, the “Day 7 4 hr. (% ± SEM) inhibition of MIA-induced change in hind paw weight distribution” value worked out at 34 ± 5%, the “Day 7 6 hr. (% ± SEM) inhibition of MIA-induced change in hind paw weight distribution” value stood at 81 ± 6% and the “Day 14 2 hr. (% ± SEM) inhibition of MIA-induced change in hind paw weight distribution” value was 33 ± 7%. In test [3], the “Day 14 4 hr. (% ± SEM) inhibition of MIA-induced change in hind paw weight distribution” value worked out at 36 ± 3% and the “Day 14 6 hr. (% ± SEM) inhibition of MIA-induced change in hind paw weight distribution” value worked out at 27 ± 9%.
